Laboratory results as given in EP1738741A2, “Use of benzylidene-1,3-thiazolidine-2,4-diones for favouring and/or inducing and/or stimulating the pigmentation of keratinic materials and/or for limiting their depigmentation and/or their bleaching” (L'ORÉAL, priority 2005, dated 2007).
Read-outs that look alike come from different tables or passages of the source.

Columns and labels:
[1] = tested on: activité tyrosinase de mélanocytes humains normaux; assay: Tyrosinase activity of cultured normal human melanocytes after 72 h treatment (L-Dopa substrate, absorbance 450 nm); format: cell-based; conditions: Melanocyte, read-out: Stimulation de l'activité tyrosinase
Procedure: Des mélanocytes épidermiques humains normaux sont cultivés (9ème passage) dans le milieu "mélanocytes growth medium M2" additionné Des compléments Promocell C24300. De pénicilline 50 UI/ml et de streptomycine 50 µg/ml (Invitrogen) dans des conditions classiques de température (37°C) sous 5% de CO2.
Le composé 5 est solubilisé dans de l'éthanol absolu (PGE2) ou dans du DMSO (inhibiteurs de 15-PGDH). Le titre final des solutions préparées est de 10 mM. Les concentrations finales testées varient de 0.1 à 10 µM (PGE2) et 1 à 10 µM (inhibiteurs de 15-PGDH).
Les essais réalisés consistent à mesurer l'effet d'inhibiteur de 15-PGDH seul ou associé à PGE2* sur l'activité globale de la tyrosinase. * PGE2 est un modulateur de pigmentation désactivé par l'enzyme 15-PGDH.
Les mélanocytes sont cultivés en plaques 96 puits jusqu'à confluence (conditions de culture décrites en a), puis le surnageant de chacun des puits est éliminé et remplacé par du milieu contenant les composés à évaluer.
Soit donc (en triplicate) l' inhibiteur de 15-PGDH seul à 1 µM et 10 µM ou pour chacune de ces premières conditions en présence de 0.1 µM, 1 µM ou 10 µM de PGE2.
Dans ces différentes conditions les cultures sont maintenues 72h00, les surnageants sont ensuite éliminés, les tapis cellulaires sont lavés avec un tampon phosphate (pH=7.2). Les cellules sont lysées avec un tampon phosphate pH=7.2 contenant 1% de triton X100.
L'activité tyrosinase de chacun des lysats est ensuite estimée contre une gamme tyrosinase de champignon (Sigma T7755).
La méthodologie mise en oeuvre utilise la L-Dopa comme substrat de réaction (45 min à 37°C), la formation de mélanine est appréciée par mesure de l'absorbance à 450 nm.
Dans ce test, deux références sont également évaluée: l'acide kojique (un inhibiteur de tyrosinase introduite à 0.1% dans le milieu de culture) et l'isobutyle méthyle xanthine (IBMX) un inhibiteur de phosphodiesterase qui limitant le catabolisme de l'AMPc contribue à l'augmentation de l'activité tyrosinase globale telle qu'appréciée dans ce test.

15-PGDH de type 1 = target: T1, 15-PGDH de type 1 (Homo sapiens, UniProt P15428); assay: Test on 15-PGDH type 1: spectrophotometric enzyme inhibition at 340 nm (NAD, PGE2 substrate); format: biochemical
T1 construct: made in house
T1 sequence (P15428 1-266): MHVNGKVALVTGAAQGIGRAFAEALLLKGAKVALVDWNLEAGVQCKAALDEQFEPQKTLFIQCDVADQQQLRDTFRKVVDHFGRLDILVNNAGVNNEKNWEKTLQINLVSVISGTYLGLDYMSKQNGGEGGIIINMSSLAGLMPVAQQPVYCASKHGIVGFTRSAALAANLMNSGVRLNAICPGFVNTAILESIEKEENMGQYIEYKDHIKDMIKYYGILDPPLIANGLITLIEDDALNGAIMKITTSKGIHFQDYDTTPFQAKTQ
Procedure: L'enzyme 15-PGDH est obtenue comme décrit dans la demande FR 02/05067 déposée au nom de L'Oréal, en suspension dans un milieu adapté à une concentration de 0,3 mg/mL puis bloquée à - 80°C. Pour les besoins du test, cette suspension est décongelée et stockée dans de la glace.
Par ailleurs on prépare un tampon Tris 100 mM, pH = 7,4, contenant 0,1 mM de dithiothréitol (D5545, Sigma-Aldrich, L'isle D'Abeau Chesne, BP 701, 38297, Saint Quentin Fallavier), 1,5 mM de β-NAD (N6522, Sigma-Aldrich, L'isle D'Abeau Chesne, BP 701, 38297, Saint Quentin Fallavier), 50 µM de Prostaglandine E2 (P4172, Sigma-Aldrich, L'isle D'Abeau Chesne, BP 701, 38297, Saint Quentin Fallavier).
Dans la cuve d'un spectrophotomètre (Perkin-Elmer, Lambda 2) thermostaté à 37°C, dont la longueur d'onde de mesure est réglée à 340 nm, sont introduits 0,965 ml de ce tampon (préalablement porté à 37°C). 0,035 mL de suspension enzymatique à 37°C sont introduits dans la cuve concomitamment à l'enregistrement ( correspondant à une augmentation de la densité optique à 340 nm). La vitesse maximale de réaction est relevée.

SMILES | inhibition at 100 µM (15-PGDH de type 1) | further results
CC(C)(C)c1ccc(Oc2ccccc2/C=C2\SC(=O)NC2=O)cc1 [Composé 4] |  | activation at 1 µM [1]: 16%
CCCCC[C@H](O)/C=C/[C@H]1[C@H](O)CC(=O)[C@@H]1C/C=C\CCCC(=O)O [PGE2, Prostaglandine E2] |  | activation at 0.1 µM ([1]; PGE2 alone at 0,1 µM): 3%; activation at 1 µM ([1]; PGE2 alone at 1 uM): 9%; activation at 10 µM ([1]; PGE2 alone at 10 uM): 15%
O=C1NC(=O)/C(=C/c2ccccc2Oc2ccc(F)cc2)S1 [compound 6] | 48% | 
CCN1C(=O)S/C(=C\c2ccccc2Oc2ccc(C(C)(C)C)cc2)C1=O [compound 13] | 23% | 
CC(C)(C)CC(C)(C)c1ccc(Oc2ccccc2/C=C2/SC(=O)NC2=O)cc1 [compound 15] | 27% | 
CC(C)(C)c1ccc(Oc2ccccc2/C=C2\SC(=O)NC2=O)c(C(C)(C)C)c1 [compound 17] | 30% | 
